ΔTm data for 3 compounds are collected here from article doi:10.1101/2023.12.04.569845, “Identification of 4-(6-((2-methoxyphenyl)amino)pyrazin-2-yl)benzoic acids as CSNK2A inhibitors with antiviral activity and improved selectivity over PIM3” (bioRxiv, 2023).

Each structure is given as a SMILES string. Like-named read-outs stand apart in the source and are kept apart here.

Holding throughout (test): biochemical
Holding throughout (set-up): Thermal shift (DSF, SYPRO Orange) Tm shift of recombinant kinase domains at 10 uM compound

For one experiment, the target named is T1, TLK1 (Homo sapiens, UniProt Q9UKI8).
T1 sequence (Q9UKI8 1-766): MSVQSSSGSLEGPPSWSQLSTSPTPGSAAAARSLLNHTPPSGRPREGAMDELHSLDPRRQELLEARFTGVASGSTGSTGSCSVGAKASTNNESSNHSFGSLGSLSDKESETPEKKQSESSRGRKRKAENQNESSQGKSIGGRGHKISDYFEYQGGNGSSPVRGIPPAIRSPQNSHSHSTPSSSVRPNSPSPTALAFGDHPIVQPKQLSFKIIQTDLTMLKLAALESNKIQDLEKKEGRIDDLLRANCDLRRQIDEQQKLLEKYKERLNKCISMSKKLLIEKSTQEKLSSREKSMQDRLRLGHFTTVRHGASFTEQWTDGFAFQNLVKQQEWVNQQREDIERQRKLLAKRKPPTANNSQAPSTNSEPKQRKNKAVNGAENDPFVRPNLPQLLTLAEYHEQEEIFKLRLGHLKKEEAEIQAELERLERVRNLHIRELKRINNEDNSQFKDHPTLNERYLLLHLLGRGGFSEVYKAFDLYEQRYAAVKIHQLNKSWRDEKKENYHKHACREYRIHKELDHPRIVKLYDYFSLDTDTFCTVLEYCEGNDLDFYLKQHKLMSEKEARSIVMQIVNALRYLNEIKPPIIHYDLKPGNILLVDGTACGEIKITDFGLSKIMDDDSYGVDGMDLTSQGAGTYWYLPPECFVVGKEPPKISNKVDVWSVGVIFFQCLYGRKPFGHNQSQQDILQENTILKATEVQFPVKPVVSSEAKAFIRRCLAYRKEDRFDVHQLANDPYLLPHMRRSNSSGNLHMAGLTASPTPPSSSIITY

For a further experiment, the target named is T2, MER (Homo sapiens, UniProt Q12866).
T2 construct: gene MERTK
T2 sequence (Q12866 1-999): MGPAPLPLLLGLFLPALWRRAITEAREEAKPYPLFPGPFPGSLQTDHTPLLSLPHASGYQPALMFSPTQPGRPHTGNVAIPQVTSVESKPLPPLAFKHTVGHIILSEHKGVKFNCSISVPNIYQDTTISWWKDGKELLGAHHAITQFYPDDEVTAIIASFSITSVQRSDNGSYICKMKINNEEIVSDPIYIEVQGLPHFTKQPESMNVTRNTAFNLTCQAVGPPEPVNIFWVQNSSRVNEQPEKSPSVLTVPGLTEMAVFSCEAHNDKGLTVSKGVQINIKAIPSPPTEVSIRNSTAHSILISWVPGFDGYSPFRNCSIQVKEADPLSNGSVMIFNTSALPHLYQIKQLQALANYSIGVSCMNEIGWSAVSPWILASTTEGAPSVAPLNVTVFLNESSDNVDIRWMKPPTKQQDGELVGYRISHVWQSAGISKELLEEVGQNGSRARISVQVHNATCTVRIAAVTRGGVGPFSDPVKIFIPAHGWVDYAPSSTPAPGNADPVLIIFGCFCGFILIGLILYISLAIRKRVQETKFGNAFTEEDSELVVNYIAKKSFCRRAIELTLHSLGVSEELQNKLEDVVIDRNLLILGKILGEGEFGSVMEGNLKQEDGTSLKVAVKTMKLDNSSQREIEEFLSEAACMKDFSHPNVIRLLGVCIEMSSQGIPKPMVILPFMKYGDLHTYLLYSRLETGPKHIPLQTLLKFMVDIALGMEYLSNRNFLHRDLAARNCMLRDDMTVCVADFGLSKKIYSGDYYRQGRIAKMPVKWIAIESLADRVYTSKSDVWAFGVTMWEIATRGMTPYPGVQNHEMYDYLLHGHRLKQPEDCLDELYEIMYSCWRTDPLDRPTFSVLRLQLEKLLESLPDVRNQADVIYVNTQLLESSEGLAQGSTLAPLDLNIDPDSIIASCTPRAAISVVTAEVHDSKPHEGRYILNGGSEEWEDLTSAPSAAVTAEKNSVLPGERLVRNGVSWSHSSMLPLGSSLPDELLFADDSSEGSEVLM

In the next experiment the target is TAF1 (Homo sapiens, UniProt P21675).
The next experiment addresses CLK1 (Homo sapiens, UniProt P49759).
A further experiment has as its target T3, DCAMKL1 (Homo sapiens, UniProt O15075).
T3 construct: gene DCLK1
T3 sequence (O15075 1-740): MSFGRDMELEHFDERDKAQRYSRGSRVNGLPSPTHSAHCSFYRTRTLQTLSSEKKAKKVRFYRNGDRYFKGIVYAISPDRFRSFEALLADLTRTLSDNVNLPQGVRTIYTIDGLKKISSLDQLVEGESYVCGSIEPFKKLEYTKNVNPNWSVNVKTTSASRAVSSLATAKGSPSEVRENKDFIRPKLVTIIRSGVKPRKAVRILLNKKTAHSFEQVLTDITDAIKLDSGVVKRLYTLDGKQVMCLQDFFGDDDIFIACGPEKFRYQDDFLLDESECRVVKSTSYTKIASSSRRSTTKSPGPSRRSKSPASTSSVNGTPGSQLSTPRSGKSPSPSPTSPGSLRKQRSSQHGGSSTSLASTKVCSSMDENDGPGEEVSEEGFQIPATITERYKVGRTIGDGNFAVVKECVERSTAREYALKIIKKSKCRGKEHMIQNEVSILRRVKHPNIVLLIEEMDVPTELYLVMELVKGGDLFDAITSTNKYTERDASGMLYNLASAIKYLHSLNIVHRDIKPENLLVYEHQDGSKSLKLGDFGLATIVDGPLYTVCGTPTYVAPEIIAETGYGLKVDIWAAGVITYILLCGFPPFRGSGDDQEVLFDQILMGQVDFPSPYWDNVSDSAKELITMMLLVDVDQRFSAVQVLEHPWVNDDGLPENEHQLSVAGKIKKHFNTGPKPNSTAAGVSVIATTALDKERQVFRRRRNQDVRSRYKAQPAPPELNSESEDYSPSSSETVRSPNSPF

Chain of TAF1 (P21675 whole entry): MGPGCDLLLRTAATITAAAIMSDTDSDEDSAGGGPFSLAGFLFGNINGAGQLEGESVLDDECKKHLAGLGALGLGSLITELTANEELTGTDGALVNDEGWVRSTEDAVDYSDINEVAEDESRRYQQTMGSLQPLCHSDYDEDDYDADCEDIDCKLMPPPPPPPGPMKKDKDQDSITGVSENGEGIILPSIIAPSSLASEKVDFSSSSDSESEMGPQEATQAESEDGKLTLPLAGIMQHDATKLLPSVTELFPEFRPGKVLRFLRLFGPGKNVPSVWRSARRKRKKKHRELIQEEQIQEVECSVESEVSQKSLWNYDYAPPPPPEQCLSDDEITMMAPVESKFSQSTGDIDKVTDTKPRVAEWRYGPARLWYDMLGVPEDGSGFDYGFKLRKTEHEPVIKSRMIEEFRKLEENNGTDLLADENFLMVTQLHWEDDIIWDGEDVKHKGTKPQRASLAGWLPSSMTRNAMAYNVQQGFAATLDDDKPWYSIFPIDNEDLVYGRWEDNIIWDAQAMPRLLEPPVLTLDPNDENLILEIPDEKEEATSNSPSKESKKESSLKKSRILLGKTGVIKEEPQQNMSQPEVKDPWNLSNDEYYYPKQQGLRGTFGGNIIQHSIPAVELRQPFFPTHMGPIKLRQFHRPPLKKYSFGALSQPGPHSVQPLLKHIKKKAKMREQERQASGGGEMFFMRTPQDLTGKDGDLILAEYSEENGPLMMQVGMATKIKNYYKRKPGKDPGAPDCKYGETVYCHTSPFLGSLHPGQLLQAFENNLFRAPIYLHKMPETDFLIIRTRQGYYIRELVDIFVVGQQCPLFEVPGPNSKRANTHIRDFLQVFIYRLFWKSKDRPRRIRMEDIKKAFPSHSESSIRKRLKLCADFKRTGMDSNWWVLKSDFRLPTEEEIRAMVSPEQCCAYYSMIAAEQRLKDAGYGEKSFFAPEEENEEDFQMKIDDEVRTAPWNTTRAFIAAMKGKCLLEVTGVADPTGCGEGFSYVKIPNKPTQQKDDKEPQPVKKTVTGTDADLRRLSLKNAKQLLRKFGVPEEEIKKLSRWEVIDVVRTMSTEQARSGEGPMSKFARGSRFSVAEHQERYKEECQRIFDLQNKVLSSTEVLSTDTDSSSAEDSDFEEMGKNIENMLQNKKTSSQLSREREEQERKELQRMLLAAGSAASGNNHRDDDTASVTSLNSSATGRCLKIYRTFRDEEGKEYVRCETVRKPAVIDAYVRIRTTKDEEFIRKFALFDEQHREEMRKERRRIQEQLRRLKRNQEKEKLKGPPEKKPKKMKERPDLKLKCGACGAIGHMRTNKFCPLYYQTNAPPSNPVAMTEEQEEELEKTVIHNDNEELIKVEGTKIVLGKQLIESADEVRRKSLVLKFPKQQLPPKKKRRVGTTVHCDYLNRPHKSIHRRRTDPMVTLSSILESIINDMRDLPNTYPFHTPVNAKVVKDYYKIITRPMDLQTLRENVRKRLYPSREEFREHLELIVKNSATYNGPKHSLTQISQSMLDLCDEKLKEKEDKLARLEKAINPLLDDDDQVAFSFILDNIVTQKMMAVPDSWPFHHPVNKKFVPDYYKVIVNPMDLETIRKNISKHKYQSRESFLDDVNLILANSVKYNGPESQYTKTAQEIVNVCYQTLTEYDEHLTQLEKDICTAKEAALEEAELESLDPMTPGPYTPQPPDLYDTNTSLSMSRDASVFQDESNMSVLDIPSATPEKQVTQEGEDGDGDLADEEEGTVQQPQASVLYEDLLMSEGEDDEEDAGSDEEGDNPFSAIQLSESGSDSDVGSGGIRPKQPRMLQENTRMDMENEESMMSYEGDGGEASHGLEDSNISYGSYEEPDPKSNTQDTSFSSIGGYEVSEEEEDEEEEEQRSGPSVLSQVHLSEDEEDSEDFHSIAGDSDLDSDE
Chain of CLK1 (P49759 whole entry): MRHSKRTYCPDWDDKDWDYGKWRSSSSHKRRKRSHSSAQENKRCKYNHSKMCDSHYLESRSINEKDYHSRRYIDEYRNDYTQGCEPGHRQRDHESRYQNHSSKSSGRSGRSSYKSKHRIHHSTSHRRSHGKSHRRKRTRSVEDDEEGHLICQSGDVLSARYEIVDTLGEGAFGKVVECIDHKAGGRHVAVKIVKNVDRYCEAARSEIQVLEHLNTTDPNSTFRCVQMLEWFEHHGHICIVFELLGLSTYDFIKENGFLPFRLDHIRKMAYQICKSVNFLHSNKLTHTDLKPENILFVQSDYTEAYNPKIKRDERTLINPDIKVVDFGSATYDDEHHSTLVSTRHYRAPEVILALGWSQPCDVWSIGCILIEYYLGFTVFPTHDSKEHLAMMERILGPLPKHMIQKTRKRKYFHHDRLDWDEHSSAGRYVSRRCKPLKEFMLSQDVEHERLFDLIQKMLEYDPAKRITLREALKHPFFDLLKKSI

For `COc1ccc(OC(C)C)cc1Nc1cncc(-c2ccc(C(=O)O)cc2)n1` [7c], the ΔTm at 10 µM was -1 °C at TLK1 (read-out: 7c); 3 °C at MER (read-out: 7c); 1 °C on TAF1 (read-out: 7c); 7 °C on CLK1 (read-out: 7c); 3 °C on DCAMKL1 (read-out: 7c).
In the case of `CC(C)Oc1ccc2ccn(-c3cncc(-c4ccc(C(=O)O)cc4)n3)c2c1` [6c], the ΔTm at 10 µM on TLK1 (read-out: 6c) was -1 °C; on MER (read-out: 6c), 3 °C; at TAF1 (read-out: 6c) it was 1 °C; on CLK1 (read-out: 6c), 7 °C; on DCAMKL1 (read-out: 6c), 3 °C.
Consider `CC(C)Nc1ccc2cnn(-c3cncc(-c4ccc(C(=O)O)cc4)n3)c2c1` [compound 2, 2], for which the ΔTm at 10 µM on TLK1 (read-out: 2) was 1 °C; at MER (read-out: 2), 3 °C; at TAF1 (read-out: 2), 0 °C; at CLK1 (read-out: 2) it was 7 °C; at DCAMKL1 (read-out: 2), 4 °C.
